The text below walks through data of ChEMBL document CHEMBL4480430, “Advances in inhibition of protein-protein interactions targeting hypoxia-inducible factor-1 for cancer therapy” (Bioorg Med Chem, 2019).

Numbered stars: 1 amine (or outer) side, 2 acyl side, 3 side chain; on linkers, the order of the positions; unused ones are H or OH. Square brackets hold non-standard residues; d marks the D form. Peptide text beside a SMILES is read from it. 4Abz(3-OiBu) = CC(C)COc1cc(C(=O)[*:2])ccc1N[*:1]; X3 = CC(C)Oc1cc(C(=O)[*:2])ccc1N[*:1] Where only a bound is given, the exact number is not on record here.

For assay [1], the target named is T1, Histone acetyltransferase p300/Hypoxia-inducible factor 1-alpha (Homo sapiens, UniProt Q09472+Q16665). The experiment in a line: Inhibition of HIF-1alpha (unknown origin)/p300 (unknown origin) protein-protein interaction. The assay is classed as protein-complex assay.
Assay [2] deals with T2, Histone acetyltransferase p300 (Homo sapiens, UniProt Q09472). Kind of assay: Binding affinity to human GST-fused p300 CH1 domain (323 to 423 residues) under hypoxic condition by SPR assay.
In assay [3] the target is T1, Histone acetyltransferase p300/Hypoxia-inducible factor 1-alpha. Kind of assay: Inhibition of human fluorescein-labeled HIF-1alpha (786 to 826 residues)/ human GST-fused p300 CH1 domain (323 to 423 residues) protein-protein interaction after 1 hr by fluorescence polarization assay. The assay is classed as protein-complex assay.
Assay [4] concerns the target T3, Hypoxia-inducible factor 1-alpha (Homo sapiens, UniProt Q16665). Kind of assay: Inhibition of HIF-1 dimerization in HEK293 cells after 24 hrs by renilla luciferase reporter gene assay. The assay is classed as cell-based.
Target sequence in this assay (Q16665 whole entry): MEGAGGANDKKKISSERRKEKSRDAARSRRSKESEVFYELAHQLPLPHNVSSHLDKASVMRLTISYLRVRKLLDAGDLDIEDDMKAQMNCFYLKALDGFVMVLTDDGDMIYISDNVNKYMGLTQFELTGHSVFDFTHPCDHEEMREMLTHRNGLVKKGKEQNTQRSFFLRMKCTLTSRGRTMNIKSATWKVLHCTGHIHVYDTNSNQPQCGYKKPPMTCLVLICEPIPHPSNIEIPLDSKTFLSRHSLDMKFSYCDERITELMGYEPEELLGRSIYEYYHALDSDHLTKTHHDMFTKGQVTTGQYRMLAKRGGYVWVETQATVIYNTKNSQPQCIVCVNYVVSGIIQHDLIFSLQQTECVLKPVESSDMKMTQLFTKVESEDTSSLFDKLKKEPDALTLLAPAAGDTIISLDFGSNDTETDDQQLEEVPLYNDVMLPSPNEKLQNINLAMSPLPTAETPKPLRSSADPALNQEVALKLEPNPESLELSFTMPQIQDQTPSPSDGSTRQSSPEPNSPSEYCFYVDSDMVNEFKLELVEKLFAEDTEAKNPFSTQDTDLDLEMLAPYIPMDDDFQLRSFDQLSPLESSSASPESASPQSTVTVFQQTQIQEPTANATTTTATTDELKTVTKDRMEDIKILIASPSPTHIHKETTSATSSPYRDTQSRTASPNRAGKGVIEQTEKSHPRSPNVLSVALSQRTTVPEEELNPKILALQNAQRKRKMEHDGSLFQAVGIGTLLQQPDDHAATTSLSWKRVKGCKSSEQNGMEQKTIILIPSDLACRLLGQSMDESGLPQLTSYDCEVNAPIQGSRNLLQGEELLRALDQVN
For a further assay, the system named is MDA-MB-231. Kind of assay: Antitumor activity against human MDA-MB-231 cells xenografted in mouse assessed as reduction in tumor volume at 15 mg/kg administered on alternative days for 28 days relative to control. The assay is classed as functional. On the set-up: scale not given: the % may be the effect or the level left.
For assay [5], the target named is T1, Histone acetyltransferase p300/Hypoxia-inducible factor 1-alpha. Kind of assay: Inhibition of HIF-1alpha/p300 protein-protein interaction in human cells after 2 hrs by immunoprecipitation assay. It is filed as cell-based.
The target is the same in assay [6]. Kind of assay: Inhibition of fluorescein-labeled HIF-1alpha (786 to 826 residues) (unknown origin)/GST-fused p300 CH1 domain (323 to 423 residues) (unknown origin) protein-protein interaction after overnight incubation by time-resolved fluorescence assay. The assay is classed as protein-complex assay.
Assay [7] addresses T3, Hypoxia-inducible factor 1-alpha. The experiment in a line: Binding affinity to Cys255 residue of C-terminal Avi/FLAG-tagged HIF-1alpha (unknown origin) after 1 hr by AlphaScreen assay.
Target sequence in this assay (Q16665 whole entry): as above
For assay [8] the target is unchanged. Kind of assay: Binding affinity to HIF-1alpha (unknown origin) PAS B domain assessed as incorporation at Cys255 residues by mass spectrometry. Further details: concentration or dose not given beside the values.
Target sequence in this assay (Q16665 whole entry, looked up): as the sequence (Q16665 whole entry) above
Assay [9] addresses T2, Histone acetyltransferase p300. Kind of assay: Binding affinity to human p300 CH1 domain (330 to 420 residues) expressed in Escherichia coli BL21(DE3) by fluorescence anisotropy competition assay.
Assay [10] addresses T1, Histone acetyltransferase p300/Hypoxia-inducible factor 1-alpha. Kind of assay: Inhibition of HIF-1alpha (unknown origin)/p300 (unknown origin) protein-protein interaction by fluorescence anisotropy. The assay is classed as protein-complex assay.
Assay [11] concerns the target T3, Hypoxia-inducible factor 1-alpha. The experiment in a line: Binding affinity to C-terminal Avi/FLAG-tagged HIF-1alpha (unknown origin) assessed as incorporation at His266 residues by mass spectrometry.
Target sequence in this assay (Q16665 whole entry, looked up): as the sequence (Q16665 whole entry) above
For assay [12] the target is unchanged. Kind of assay: Binding affinity to HIF-1alpha (unknown origin) PAS B domain assessed as incorporation at Cys334 residues by mass spectrometry.
Target sequence in this assay (Q16665 whole entry, looked up): as the sequence (Q16665 whole entry) above
Assay [13] has the same target. The experiment in a line: Binding affinity to HIF-1alpha (unknown origin) PAS B domain assessed as incorporation at Lys297 residues by mass spectrometry.
Target sequence in this assay (Q16665 whole entry, looked up): as the sequence (Q16665 whole entry) above
Assay [14] shares this target. The experiment in a line: Binding affinity to HIF-1alpha (unknown origin) PAS B domain assessed as incorporation at His246 residues by mass spectrometry.
Target sequence in this assay (Q16665 whole entry, looked up): as the sequence (Q16665 whole entry) above
The target of assay [15] is T1, Histone acetyltransferase p300/Hypoxia-inducible factor 1-alpha. Kind of assay: Inhibition of fluorescein-labeled HIF-1alpha (786 to 826 residues) (unknown origin)/GST-fused p300 CH1 domain (323 to 423 residues) (unknown origin) protein-protein interaction at 500 uM after overnight incubation by time-resolved fluorescence assay relative to control. It is filed as protein-complex assay.

The target in assay [16] is T2, Histone acetyltransferase p300. Kind of assay: Binding affinity to p300 (unknown origin) by fluorescence anisotrophy.
The target is the same in assay [17]. Kind of assay: Binding affinity to p300 CH1 domain (unknown origin) by tryptophan fluorescence assay.
The target of assay [18] is T3, Hypoxia-inducible factor 1-alpha. The experiment in a line: Binding affinity to His-tagged HIF-1alpha (1 to 350 residues) (unknown origin) PAS B domain expressed in Escherichia coli BL21(DE3) by ITC.
Target sequence in this assay (Q16665 whole entry): as above

T2 sequence (Q09472 whole entry, the tested form may be a part): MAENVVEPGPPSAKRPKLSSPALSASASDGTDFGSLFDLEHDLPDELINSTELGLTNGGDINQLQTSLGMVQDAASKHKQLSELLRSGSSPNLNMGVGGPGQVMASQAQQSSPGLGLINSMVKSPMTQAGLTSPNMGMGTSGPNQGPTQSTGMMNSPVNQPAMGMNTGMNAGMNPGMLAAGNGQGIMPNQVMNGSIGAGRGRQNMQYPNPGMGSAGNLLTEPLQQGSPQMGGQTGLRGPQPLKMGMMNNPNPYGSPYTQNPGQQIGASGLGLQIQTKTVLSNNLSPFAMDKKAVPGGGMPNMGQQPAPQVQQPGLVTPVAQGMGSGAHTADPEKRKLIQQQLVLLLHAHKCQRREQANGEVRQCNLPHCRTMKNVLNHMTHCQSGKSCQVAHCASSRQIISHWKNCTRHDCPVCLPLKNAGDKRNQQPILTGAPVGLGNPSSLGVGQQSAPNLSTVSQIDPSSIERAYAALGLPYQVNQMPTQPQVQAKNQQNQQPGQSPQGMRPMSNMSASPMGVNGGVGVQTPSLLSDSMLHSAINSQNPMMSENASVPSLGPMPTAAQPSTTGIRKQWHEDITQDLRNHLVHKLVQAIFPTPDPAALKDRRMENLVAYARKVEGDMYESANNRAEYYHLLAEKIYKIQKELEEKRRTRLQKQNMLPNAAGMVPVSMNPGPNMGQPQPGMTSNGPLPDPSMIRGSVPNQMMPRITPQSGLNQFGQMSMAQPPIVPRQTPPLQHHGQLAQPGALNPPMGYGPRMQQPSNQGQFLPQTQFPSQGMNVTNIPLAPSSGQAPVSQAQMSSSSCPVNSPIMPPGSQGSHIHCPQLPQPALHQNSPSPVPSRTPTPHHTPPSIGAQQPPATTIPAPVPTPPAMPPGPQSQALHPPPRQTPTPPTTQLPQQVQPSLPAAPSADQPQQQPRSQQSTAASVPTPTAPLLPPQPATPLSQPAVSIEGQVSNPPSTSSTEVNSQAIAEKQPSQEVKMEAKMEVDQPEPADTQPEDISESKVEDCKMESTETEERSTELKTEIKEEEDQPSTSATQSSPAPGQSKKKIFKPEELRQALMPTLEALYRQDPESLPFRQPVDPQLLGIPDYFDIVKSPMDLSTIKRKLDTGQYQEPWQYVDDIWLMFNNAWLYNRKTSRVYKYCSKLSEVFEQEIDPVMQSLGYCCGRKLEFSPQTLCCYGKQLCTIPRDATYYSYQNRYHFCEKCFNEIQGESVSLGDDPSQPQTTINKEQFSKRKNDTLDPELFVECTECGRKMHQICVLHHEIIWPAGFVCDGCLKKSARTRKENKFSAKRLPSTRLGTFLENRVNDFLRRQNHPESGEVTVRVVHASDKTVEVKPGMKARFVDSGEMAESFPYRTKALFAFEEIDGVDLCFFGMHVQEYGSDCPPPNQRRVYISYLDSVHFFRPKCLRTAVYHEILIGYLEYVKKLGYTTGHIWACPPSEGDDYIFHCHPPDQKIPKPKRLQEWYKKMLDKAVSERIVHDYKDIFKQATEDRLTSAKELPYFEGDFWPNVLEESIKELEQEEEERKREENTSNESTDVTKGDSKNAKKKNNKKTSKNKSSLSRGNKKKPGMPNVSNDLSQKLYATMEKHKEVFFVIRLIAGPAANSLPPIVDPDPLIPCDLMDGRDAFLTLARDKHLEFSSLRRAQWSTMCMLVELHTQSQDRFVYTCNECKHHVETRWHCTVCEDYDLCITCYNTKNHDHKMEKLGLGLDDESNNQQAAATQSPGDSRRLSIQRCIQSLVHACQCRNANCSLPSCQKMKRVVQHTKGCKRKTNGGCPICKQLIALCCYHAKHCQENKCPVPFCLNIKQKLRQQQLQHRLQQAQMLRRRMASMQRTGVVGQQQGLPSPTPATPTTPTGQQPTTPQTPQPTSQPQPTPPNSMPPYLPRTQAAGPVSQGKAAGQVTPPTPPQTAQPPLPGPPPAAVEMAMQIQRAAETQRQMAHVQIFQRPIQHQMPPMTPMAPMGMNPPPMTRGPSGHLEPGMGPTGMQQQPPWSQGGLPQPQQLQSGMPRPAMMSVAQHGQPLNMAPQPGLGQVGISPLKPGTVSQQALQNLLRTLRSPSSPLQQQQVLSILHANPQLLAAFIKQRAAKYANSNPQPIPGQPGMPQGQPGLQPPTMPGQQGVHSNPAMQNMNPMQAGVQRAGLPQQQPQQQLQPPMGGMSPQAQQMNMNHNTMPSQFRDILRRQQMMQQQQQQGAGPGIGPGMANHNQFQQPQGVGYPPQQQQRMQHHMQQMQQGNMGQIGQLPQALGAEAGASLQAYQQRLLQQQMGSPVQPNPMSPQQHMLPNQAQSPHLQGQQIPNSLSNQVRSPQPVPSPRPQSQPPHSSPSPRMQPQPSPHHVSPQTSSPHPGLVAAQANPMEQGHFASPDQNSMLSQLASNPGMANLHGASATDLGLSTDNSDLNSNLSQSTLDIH

The compound `COc1ccc(S(=O)(=O)N(Cc2ccc3c(n2)C=CC(C)(C)O3)C2CCC2)cc1OC` yielded an IC50 in [1] of 280 nM. In assay [2], `CN1C(=O)[C@@]2(Cc3ccc(CCc4ccc(C[C@@]56SS[C@@](CO)(C(=O)N5C)N(C)C6=O)cc4)cc3)NC(=O)[C@]1(CO)SS2` showed a dissociation constant Kd of 3620 nM. The compound also displayed an IC50 in assay [3] of 600 to 700 nM. As for `COc1ccc(S(=O)(=O)N(Cc2ccc(CN3CCOCC3)cc2)c2ccccc2)cc1OC`, in assay [1], the IC50 was 900 nM. In assay [2], `CN1C(=O)[C@@]2(Cc3ccc(C[C@]45SS[C@](CO)(C(=O)N4C)N(C)C5=O)cc3)SS[C@]1(CO)C(=O)N2C` displayed a Kd of 750 nM. This compound also showed a half-inhibitory concentration (IC50) in assay [3] of 1500 nM. `C[n+]1c2cc(N)ccc2cc2ccc(N)cc21` [EUFLAVINE] gave an IC50 in assay [4] of 1000 nM. `CC(C)C[C@@H]1NCCN([C@@H](CC(C)C)C(=O)N2CCN([C@@H](CCC(N)=O)C(N)=O)C(=O)[C@@H]2C)C1=O`: the Activity with MDA-MB-231 amounted to 50%. In the case of `CN1C(=O)[C@]2(Cc3cn([C@]45C[C@@]67SS[C@@](CO)(C(=O)N6[C@H]4Nc4ccccc45)N(C)C7=O)c4ccccc34)SS[C@@]1(CO)C(=O)N2C` [CHETOMIN], in assay [5], the 50% inhibitory concentration (IC50) stood at 540 nM. In the case of `COc1ccc([C@@]2(c3nc(N)[nH]c3-c3ccc(O)cc3)N=C3N=CC=C4c5ccccc5N=C2N43)cc1`, the IC50 in assay [6] worked out at 276000 nM. On to `O=[N+]([O-])c1ccc2c(c1)S(=O)(=O)C=C2`, for which the IC50 in assay [7] was 43 nM. Besides, the Activity in assay [8] was over 50%. Turning to `CC(C)COc1cc(C(=O)O)ccc1NC(=O)c1ccc(NC(=O)c2ccc(N)c(OC(C)C)c2)c(OCC(C)C)c1`, the IC50 in [9] worked out at 24000 nM.

On to `COc1ccc(S(=O)(=O)N(Cc2ccc3c(c2)C=CC(C)(C)O3)c2ccccc2)cc1OC`, for which the 50% inhibitory concentration (IC50) in assay [1] came out at 590 nM.

Consider `C=CC(=O)N1CCc2ccccc21`, for which, in assay [8], the Activity was 25%. Regarding `CC[C@H](C)[C@H](NC(=O)[C@@H]1CCCN1C(=O)[C@H](C)NC(=O)[C@H](CC(N)=O)NC(=O)[C@@H](NC(=O)[C@H](CCC(=O)O)NC(=O)[C@H](CO)NC(=O)[C@H](CC(=O)O)NC(=O)[C@H](Cc1ccc(O)cc1)NC(=O)[C@H](CO)NC(=O)[C@@H](NC(=O)[C@H](CC(C)C)NC(=O)[C@@H](N)CCC(N)=O)[C@@H](C)O)C(C)C)C(=O)N[C@@H](CCC(N)=O)C(=O)NCC(=O)N[C@@H](CO)C(=O)N[C@@H](CCCNC(=N)N)C(=O)N[C@@H](CC(N)=O)C(=O)N[C@@H](CC(C)C)C(=O)N[C@@H](CC(C)C)C(=O)N[C@@H](CCC(N)=O)C(=O)NCC(=O)Nc1ccc(C(=O)Nc2ccc(C(=O)Nc3ccc(C(=O)NCC(N)=O)cc3OC(C)C)cc2OCC(C)C)cc1OCC(C)C` (H-QLTSYDSEVNAPIQGSRNLLQG[4Abz(3-OiBu)][4Abz(3-OiBu)][X3]G-NH2), in assay [10], it took 83000 nM to reach half-maximal inhibition (IC50). `CC1=CC(O)(C#Cc2ccccc2)C=CC1=O` (centres undefined): the Activity is 10 to 20% in assay [11]; over 50% in assay [8]; 10 to 20% in assay [12]; 10 to 20% in [13]; 10 to 20% in assay [14].

In [1], `CN1C(=O)[C@@]23C[C@]4([C@]56C[C@@]78SS[C@@](CO)(C(=O)N7[C@H]5Nc5ccccc56)N(C)C8=O)c5ccccc5N[C@@H]4N2C(=O)[C@]1(CO)SS3` [CHAETOCIN] yielded a half-inhibitory concentration (IC50) of 12500 nM.

In turn, `COc1ccc([C@]2(c3nc(N)[nH]c3-c3ccc(O)cc3)N=C3N=CC=C4c5ccccc5N=C2N43)cc1` displayed an inhibition in [15] of 27%. In turn, H-QLTSYDCEVNA-OH gave an equilibrium dissociation constant (Kd) in assay [16] of 6740 nM. In turn, `COc1ccc(S(=O)(=O)N(Cc2ccc(CN3CCOCC3)cc2)C2CCC2)cc1OC` returned a half-inhibitory concentration (IC50) in assay [1] of 1000 nM. For H-QLTSYDCEVNAPIQGSRNLLQGEELLRALDQVN-OH, the IC50 in assay [10] amounted to 89000 nM.

`CC(C)COc1cc(C(=O)Nc2ccc(C(=O)Nc3ccc(C(=O)O)cc3OC(C)C)cc2OCC(C)C)ccc1N` gave an IC50 in assay [9] of 9190 nM. For `C=C1C(=O)OC2C1CCC(=C)C1CC(=O)C(=C)C12` (centres undefined), the Activity in assay [11] is 10 to 20%; in assay [8] it was over 50%; in assay [12] it was 10 to 20%; in assay [13], 10 to 20%; in [14], 10 to 20%. In the case of `CCCC[C@@H](C(=O)N1CCN([C@@H](CCC(N)=O)C(N)=O)C(=O)[C@@H]1C)N1CCN[C@@H](CC(C)C)C1=O`, binding in [17] was characterised by a dissociation constant (Kd) of 30000 nM. In the case of `COC(=O)/C=C1/OC(c2ccc(O)cc2)=CC1=O`, the Activity was 10 to 20% in assay [11]; over 50% in assay [8]; 10 to 20% in assay [12]; 10 to 20% in assay [13]; 10 to 20% in [14].

For `CC(C)C[C@@H]1NC(=O)[C@H](CS)NC(=O)[C@H](Cc2ccc(O)cc2)NC(=O)[C@H](C(C)C)NC(=O)[C@H](Cc2ccccc2)NC(=O)[C@H](CC(C)C)NC1=O`, the Kd in [18] was found to be 124 nM.
